bioavailability, IC50 and Ki data for one molecule are collected here from ChEMBL document CHEMBL5113527, “First-in-Class Hydrazide-Based HDAC6 Selective Inhibitor with Potent Oral Anti-Inflammatory Activity by Attenuating NLRP3 Inflammasome Activation” (J Med Chem, 2022).

As a reminder, the bioavailability is dose-corrected exposure relative to a reference, in per cent. A low value points to poor availability. What is called IC50 is the midpoint of a concentration-inhibition curve. A word on the Ki: it is the equilibrium dissociation constant of an inhibitor or competing ligand from its target.

Series [1] can be described thus: Oral bioavailability in CD-1 mouse at 20 mg/kg measured after 0.083 to 24 hrs by LC-MS/MS analysis. The settings on record: in vivo, time 0.083-24 hrs. The series is classed as ADME, organism-based.
Series [2] addresses T1, Protein deacetylase HDAC6 (Homo sapiens, UniProt Q9UBN7).
T1 sequence (Q9UBN7 whole entry): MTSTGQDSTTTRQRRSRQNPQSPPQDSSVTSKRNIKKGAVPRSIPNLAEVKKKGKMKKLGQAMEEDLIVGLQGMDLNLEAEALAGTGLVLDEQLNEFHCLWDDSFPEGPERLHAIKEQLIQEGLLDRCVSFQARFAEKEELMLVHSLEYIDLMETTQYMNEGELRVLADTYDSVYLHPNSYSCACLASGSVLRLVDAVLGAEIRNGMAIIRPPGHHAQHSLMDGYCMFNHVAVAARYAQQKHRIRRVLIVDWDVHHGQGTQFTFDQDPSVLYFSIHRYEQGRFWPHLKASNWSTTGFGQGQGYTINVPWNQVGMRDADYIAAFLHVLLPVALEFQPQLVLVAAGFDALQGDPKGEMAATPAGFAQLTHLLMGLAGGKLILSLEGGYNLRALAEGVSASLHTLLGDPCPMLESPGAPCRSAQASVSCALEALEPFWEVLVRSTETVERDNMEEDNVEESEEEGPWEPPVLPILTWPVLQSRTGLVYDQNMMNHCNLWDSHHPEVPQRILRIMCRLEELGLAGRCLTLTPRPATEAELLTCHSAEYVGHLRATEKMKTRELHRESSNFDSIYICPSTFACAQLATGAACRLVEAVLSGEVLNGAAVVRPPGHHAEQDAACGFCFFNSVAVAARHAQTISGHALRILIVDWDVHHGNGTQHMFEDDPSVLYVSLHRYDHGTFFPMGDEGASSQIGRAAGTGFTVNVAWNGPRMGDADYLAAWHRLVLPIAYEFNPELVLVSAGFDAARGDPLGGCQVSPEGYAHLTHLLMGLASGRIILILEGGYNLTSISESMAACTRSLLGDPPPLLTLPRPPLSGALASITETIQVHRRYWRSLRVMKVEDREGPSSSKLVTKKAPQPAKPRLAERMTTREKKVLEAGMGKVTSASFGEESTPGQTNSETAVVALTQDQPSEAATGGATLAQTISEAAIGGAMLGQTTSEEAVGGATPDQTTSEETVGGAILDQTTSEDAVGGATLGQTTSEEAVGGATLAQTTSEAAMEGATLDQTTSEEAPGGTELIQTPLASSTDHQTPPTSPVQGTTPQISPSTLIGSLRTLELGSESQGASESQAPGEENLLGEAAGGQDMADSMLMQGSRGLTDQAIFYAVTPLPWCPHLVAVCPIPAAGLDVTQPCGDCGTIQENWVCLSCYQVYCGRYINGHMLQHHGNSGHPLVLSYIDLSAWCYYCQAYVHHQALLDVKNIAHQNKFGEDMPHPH
As to the kind of experiment: Inhibition of recombinant HDAC6 (unknown origin) using Boc-Lys(acetyl)-AMC as substrate preincubated for 0 min followed by substrate addition and measured after 2 hrs by fluorescence based microplate reader analysis.

Another series addresses Histone deacetylase 2 (Homo sapiens, UniProt Q92769). In words: Inhibition of recombinant HDAC2 (unknown origin) using Boc-Lys(acetyl)-AMC as substrate preincubated for 1 hr followed by substrate addition and measured after 2 hrs by fluorescence based microplate reader analysis.
The target of series [3] is T1, Protein deacetylase HDAC6. As to the kind of experiment: Binding affinity to recombinant HDAC6 (unknown origin) assessed as inhibition constant using Boc-Lys(acetyl)-AMC as substrate preincubated for 1 hr followed by substrate addition and measured after 2 hrs by fluorescence based microplate reader analysis.

Chain of Histone deacetylase 2 (Q92769 whole entry): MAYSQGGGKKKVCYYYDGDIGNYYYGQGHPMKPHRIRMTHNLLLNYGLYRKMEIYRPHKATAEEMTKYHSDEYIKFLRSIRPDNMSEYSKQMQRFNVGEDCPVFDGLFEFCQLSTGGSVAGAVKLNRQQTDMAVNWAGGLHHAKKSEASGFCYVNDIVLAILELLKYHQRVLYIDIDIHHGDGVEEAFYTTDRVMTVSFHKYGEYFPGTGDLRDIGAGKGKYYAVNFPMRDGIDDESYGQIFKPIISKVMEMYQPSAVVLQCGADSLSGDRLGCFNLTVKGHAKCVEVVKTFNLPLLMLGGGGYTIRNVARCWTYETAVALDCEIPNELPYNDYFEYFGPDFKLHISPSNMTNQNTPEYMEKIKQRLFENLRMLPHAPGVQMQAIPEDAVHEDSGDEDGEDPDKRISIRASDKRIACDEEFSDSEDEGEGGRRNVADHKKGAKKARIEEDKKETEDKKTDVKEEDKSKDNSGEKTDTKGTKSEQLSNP

In series [1], `CCNNC(=O)c1ccc(CN2c3ccccc3C=Cc3ccncc32)cc1` registered a bioavailability of 93.4%. Further, the 50% inhibitory concentration (IC50) in series [2] turned out to be 461 nM; at Histone deacetylase 2, 2060 nM. For the same molecule, the Ki in series [3] was determined as 3 nM.
